Measurements taken from US20080051327A1, “Crystals of an Aurora-A Tpx2 Complex, Tpx2 Binding Site of Aurora-A, Aurora-A Ligands and Their Use” (EMBL, priority 2003, published 2008).

T1: Aurora A (Homo sapiens, UniProt O14965)
T1 sequence (O14965 1-403): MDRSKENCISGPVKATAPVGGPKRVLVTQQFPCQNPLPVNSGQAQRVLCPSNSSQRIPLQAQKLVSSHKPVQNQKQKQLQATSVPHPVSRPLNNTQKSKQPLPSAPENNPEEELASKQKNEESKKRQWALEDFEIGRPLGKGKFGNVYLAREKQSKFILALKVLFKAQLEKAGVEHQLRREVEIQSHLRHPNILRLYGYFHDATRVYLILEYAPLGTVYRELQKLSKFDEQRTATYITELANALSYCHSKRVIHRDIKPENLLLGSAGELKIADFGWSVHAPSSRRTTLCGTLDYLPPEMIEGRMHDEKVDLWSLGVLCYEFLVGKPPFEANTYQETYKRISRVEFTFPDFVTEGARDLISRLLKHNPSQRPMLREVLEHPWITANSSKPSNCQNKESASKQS

T2: Aurora + TPX2 (Homo sapiens, UniProt O14965)
T2 sequence (O14965 1-403): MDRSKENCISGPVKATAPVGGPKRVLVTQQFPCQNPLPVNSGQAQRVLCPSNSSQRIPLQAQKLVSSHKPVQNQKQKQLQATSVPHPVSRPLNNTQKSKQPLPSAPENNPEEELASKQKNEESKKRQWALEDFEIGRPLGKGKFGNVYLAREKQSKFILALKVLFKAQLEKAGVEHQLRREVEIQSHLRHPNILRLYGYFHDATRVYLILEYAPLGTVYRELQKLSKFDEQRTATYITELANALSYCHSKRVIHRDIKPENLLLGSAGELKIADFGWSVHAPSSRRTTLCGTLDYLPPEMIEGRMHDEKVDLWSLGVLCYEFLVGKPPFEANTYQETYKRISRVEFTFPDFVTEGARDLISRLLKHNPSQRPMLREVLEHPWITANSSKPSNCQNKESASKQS


Tests used:
Aurora A [1] = target: T1, Aurora A; assay: luminescence ATP detection kinase assay (EasyLite-Kinase), Aurora without TPX2; assay type: biochemical; details: for IC50: 150 nM Aurora without TPX2, 20 μM ATP, 100 μM Kemptide, 20 min room temperature
Description: (§1) The ability of compounds (7) and (12) to inhibit Aurora A was tested in a luminescence ATP detection assay system for kinase applications. Briefly, the compound of the present invention was added to a solution of Aurora A in HEPES buffer (150 nM Aurora +/− TPX2, 25 mM HEPES pH 7.4, 5 mM MgCl2, 0.01% Tween 20; 0.1% BSA; 100 μM Kemptide [Promega Corporation, Madison, Wis.]); final assay concentrations). The addition of an ATP solution (20 μM final concentration) initiated the reaction. The reaction was carried out for 20 min at room temperature and terminated by the addition of equal volumes of EasyLite Solution (Perkin Elmer Corporation, Boston, Mass.) followed by monitoring the luminescence in a Wallac Envision plate reader (Perkin Elmer Corporation, Boston, Mass.). The EasyLite-Kinase® is an ATP monitoring system based on firely (Photinus pyralis) luciferase for the evaluation of kinase activity. The system relies on the consumption of ATP during a kinase reaction and is commercially available.

Aurora + TPX2 = target: T2, Aurora + TPX2; assay: luminescence ATP detection kinase assay (EasyLite-Kinase), Aurora + TPX2; assay type: biochemical; details: 150 nM Aurora with TPX2, 20 μM ATP, 100 μM Kemptide, 20 min room temperature
Description: as §1

protein kinase A, PKA = protein kinase A, PKA (Homo sapiens, UniProt P17612); assay: luminescence ATP detection kinase assay, PKA counter-test; assay type: biochemical
Aurora A [2] = target: T1, Aurora A; assay: phosphatase assay, PP1 treatment of Aurora-A, Western blot; assay type: biochemical; details: TPX2 protein 3 μM, Aurora-A 2 μM, PP1 0.5 h at 30° C., FIG. 1E
Description: Samples were diluted in phosphatase buffer (50 mM Tris-HCl pH 7, 0.1 mM EDTA, 1 mM MnCl2, 5 mM caffeine, 5 mM DTT, 0.025% Tween 20) and incubated in the absence or presence of PP1 (α isoform, NEB) for 0.5 h at 30° C. Afterwards proteins were separated by SDS-PAGE and analyzed by Western blotting with anti-Aurora-A or anti-phospho-Aurora-A (Cell Signalling, 1:10000 dilution).

Aurora A [3] = target: T1, Aurora A; assay: immunoprecipitation from mitotic HeLa cell extract; assay type: binding; details: GST fusion proteins 1 μM, FIG. 1B
Description: HeLa cells (CCL2; ATCC, Manassas, Va.) were grown in 10% fetal calf serum (FCS) and 2 mM L-glutamine in modified Eagle's medium at 37° C. and 5% CO2. Cells were arrested in S phase using a double thymidine (2 mM) block as described (Stein, 1994) and released from S phase by washing away the thymidine. After 10 h, cells were trypsinized, incubated for 10 min in ice-cold lysis buffer (25 mM Tris pH 7.6, 200 mM NaCl, 1% Triton, protease inhibitors), and centrifuged for 10 min at 15,000 g.
For coating beads with anti-GST, 6 μg of antibody were incubated with 20 μl of protein A-conjugated Dynabeads 280 (Dynal) in a total volume of 100 μl PBS-T (PBS, 0.1% Triton X-100), for at least 1 h at 4° C. The beads were washed twice with PBS-T and twice with HeLa cells lysis buffer or CSF-XB (10 mM Hepes pH 7.7, 50 mM sucrose, 100 mM KCl, 2 mM MgCl2, 0.1 mM CaCl2 and 5 mM EGTA). 50 μl extract was incubated with GST, GST TPX2 1-43, GST TPX2 15-43, GST TPX2 Xenopus or GST TPX2(1-39) Xenopus proteins (final concentrations: 250 nM Xenopus; 1 μM HeLa) in the absence or presence of RanQ69L-GTP (16 μm) for 15 minutes at 20° C. and then added to the beads. […] The samples were then subjected to gel electrophoresis and analyzed by Western blotting with anti-GST, anti-Xenopus TPX2, anti-Xenopus Aurora-A or anti-human Aurora-A.

Aurora A [4] = target: T1, Aurora A; assay: in vitro kinase assay, phosphorylation of histone H3 (autoradiography); assay type: biochemical; design: were incubated with full length Aurora-A or AuroraΔN in kinase buffer; made in house; host or cells: bacteria (printed only for the full-length protein used as immunogen); details: full length Aurora-A, TPX2 protein at 4 μM, FIG. 1C

Molecule | inhibition of Aurora (in words) (Aurora A [1]) | IC50 (Aurora A [1]) | IC50 (Aurora + TPX2) | IC50 (protein kinase A, PKA) | protection of Aurora-A from dephosphorylation by PP1 (Aurora A [2]) | interaction with Aurora-A in HeLa extract (Aurora A [3]) | stimulation of histone H3 phosphorylation by Aurora-A (Aurora A [4])
OCc1cn(CCCCc2ccccn2)c2ccc(Oc3ccc(O)cc3)cc12 [(7)] | inhibited Aurora significantly | 79 µM | > 500 µM | > 500 µM | – | – | –
COC(=O)C(CC(=O)NCc1cn(CCCCc2ccccn2)c2ccc(Oc3ccc(O)cc3)cc12)NC(C)=O (stereo not drawn) [(12), 3-N-aspartylaminomethyl-5-O-p-hydroxyphenyl-1-N-(4-pyridylbutyl)-indole] | inhibited Aurora significantly | 37 µM | 37 µM | > 500 µM | – | – | –
TPX2(15-43): shorter construct of human TPX2 encompassing residues 15-43 (DFINFSSLDDEGDTQNIDSWFEEKANLEN) | – | – | – | – | fully dephosphorylated as in the absence of TPX2 altogether | unable to do so | –
Full-length TPX2: full-length TPX2 protein, specific activator of Aurora-A (protein, UniProt Q9ULW0 1-747, looked up, full-length) MSQVKSSYSYDAPSDFINFSSLDDEGDTQNIDSWFEEKANLENKLLGKNGTGGLFQGKTPLRKANLQQAIVTPLKPVDNTYYKEAEKENLVEQSIPSNACSSLEVEAAISRKTPAQPQRRSLRLSAQKDLEQKEKHHVKMKAKRCATPVIIDEILPSKKMKVSNNKKKPEEEGSAHQDTAEKNASSPEKAKGRHTVPCMPPAKQKFLKSTEEQELEKSMKMQQEVVEMRKKNEEFKKLALAGIGQPVKKSVSQVTKSVDFHFRTDERIKQHPKNQEEYKEVNFTSELRKHPSSPARVTKGCTIVKPFNLSQGKKRTFDETVSTYVPLAQQVEDFHKRTPNRYHLRSKKDDINLLPSKSSVTKICRDPQTPVLQTKHRARAVTCKSTAELEAEELEKLQQYKFKARELDPRILEGGPILPKKPPVKPPTEPIGFDLEIEKRIQERESKKKTEDEHFEFHSRPCPTKILEDVVGVPEKKVLPITVPKSPAFALKNRIRMPTKEDEEEDEPVVIKAQPVPHYGVPFKPQIPEARTVEICPFSFDSRDKERQLQKEKKIKELQKGEVPKFKALPLPHFDTINLPEKKVKNVTQIEPFCLETDRRGALKAQTWKHQLEEELRQQKEAACFKARPNTVISQEPFVPKKEKKSVAEGLSGSLVQEPFQLATEKRAKERQELEKRMAEVEAQKAQQLEEARLQEEEQKKEELARLRRELVHKANPIRKYQGLEIKSSDQPLTVPVSPKFSTRFHC | – | – | – | – | prevents dephosphorylation of Thr288AUR | – | increases the activity of the kinase, but appears less effective than the fragment
